Data: ChEMBL document CHEMBL1817550, “Synthesis and biological evaluation of some novel cyclic-imides as hypoglycaemic, anti-hyperlipidemic agents” (Eur J Med Chem, 2011)
The source made the active and inactive calls. The calls are words filed in the database; no cut-off is given here.

Tests used:
[1] = test system: Rattus norvegicus; assay: Toxicity in healthy rat assessed as incidence of less responsive state at 2000 to 7000 mg/kg, po measured after 2 to 6 hrs; format: organism-based; design: route oral; settings: in vivo
[2] = test system: Rattus norvegicus; assay: Hypoglycemic activity in streptozotocin-induced diabetic rat model assessed as decrease in serum glucose level at 10 mg/kg/day, po dosed via gavage for 14 days administered 3 days after streptozotocin challenge by UV-spectrophotometry; format: functional
[3] = Toxicity in intra-gastrically dosed healthy rat administered as single dose; format: organism-based; settings: in vivo, po
[4] = test system: Rattus norvegicus; assay: Antihyperlipidemic activity in high-cholesterol diet-induced hypercholesterolemia Swiss albino rat model assessed as reduction in serum cholesterol level at 160 mg/kg/day, po administered via gavage simultaneously with diet cocktail for 14 days by UV-spectrophotometry relative to untreated control; format: functional, organism-based
[5] = test system: Rattus norvegicus; assay: Antihyperlipidemic activity in high-cholesterol diet-induced hypercholesterolemia Swiss albino rat model assessed as reduction in serum cholesterol level at 10 mg/kg/day, po administered via gavage simultaneously with diet cocktail for 14 days by UV-spectrophotometry relative to untreated control; format: functional; settings: 336 h
[6] = test system: Rattus norvegicus; assay: Toxicity in healthy rat at 2000 to 7000 mg/kg, po measured after 24 hrs; format: organism-based; design: dose 2000-7000 mg/kg, route oral; settings: in vivo
[7] = test system: Rattus norvegicus; assay: Toxicity in healthy rat assessed as incidence of mortality at 2000 to 7000 mg/kg, po measured after 24 hrs; format: organism-based; design: dose 2000-7000 mg/kg, route oral; settings: in vivo
[8] = test system: Rattus norvegicus; assay: Antihyperlipidemic activity in streptozotocin-induced diabetic rat model assessed as serum cholesterol level at 10 mg/kg/day, po dosed via gavage for 14 days administered 3 days after streptozotocin challenge by UV-spectrophotometry; format: functional
[9] = test system: Rattus norvegicus; assay: Antihyperlipidemic activity in streptozotocin-induced diabetic rat model assessed as serum triglyceride level at 10 mg/kg/day, po dosed via gavage for 14 days administered 3 days after streptozotocin challenge by UV-spectrophotometry; format: functional

SMILES | Activity [1] | inhibition in vivo at 10 mg/kg/day [2] [%] | LD50 [3] [mg/kg] | Activity [4] | inhibition in vivo at 10 mg/kg/day [5] [%] | Activity [6] | Activity [7] | Activity [8] [mg/dL] | Activity [9] [mg/dL]
O=C1c2cc(Cl)c(Cl)cc2C(=O)N1CCc1ccccn1 | Toxic | 55 | 5260 | Active | 56 | Non-toxic | Non-toxic | 92.33 | 71.6
O=C1c2c(Br)c(Br)c(Br)c(Br)c2C(=O)N1c1ccncc1 |  |  |  |  | 13 |  |  | 171 | 120
O=C1[C@@H]2[C@H](C(=O)N1c1ncccn1)C1(Cl)C(Cl)=C(Cl)C2(Cl)C1(Cl)Cl |  |  |  |  | 44 |  |  | 162.3 | 89.33
O=C1c2cc(Cl)c(Cl)cc2C(=O)N1c1ccncc1 |  |  |  |  | 19 |  |  | 146 | 112
O=C1[C@@H]2[C@H](C(=O)N1c1ccncc1)C1(Cl)C(Cl)=C(Cl)C2(Cl)C1(Cl)Cl |  | 27 |  |  | 41 |  |  | 169.3 | 77
O=C1[C@@H]2[C@H](C(=O)N1Cc1ccccn1)C1(Cl)C(Cl)=C(Cl)C2(Cl)C1(Cl)Cl |  |  |  |  | 4 |  |  | 149.3 | 123
O=C1c2c(Cl)c(Cl)c(Cl)c(Cl)c2C(=O)N1c1ccccn1 |  |  |  |  | 9 |  |  | 140.3 | 120
O=C1c2cc(Cl)c(Cl)cc2C(=O)N1c1ncccn1 | Toxic | 32 | 4240 | Active | 58 | Non-toxic | Non-toxic | 96 | 70.66
O=C1c2c(Cl)c(Cl)c(Cl)c(Cl)c2C(=O)N1CCc1ccccn1 |  |  |  |  | 48 |  |  | 107.2 | 80
COc1ccc(Cl)cc1C(=O)NCCc1ccc(S(=O)(=O)NC(=O)NC2CCCCC2)cc1 [GLYBURIDE] |  | 52 |  |  | 11 |  |  | 102.6 | 87.6
O=C1c2cc(Cl)c(Cl)cc2C(=O)N1CCN1CCOCC1 |  | 30 |  |  | 42 |  |  | 88.66 | 97.66
O=C1c2c(Br)c(Br)c(Br)c(Br)c2C(=O)N1CCc1ccccn1 |  | 18 |  |  | 20 |  |  | 164.6 | 91.33
O=C1[C@@H]2[C@H](C(=O)N1CCc1ccccn1)C1(Cl)C(Cl)=C(Cl)C2(Cl)C1(Cl)Cl |  | 7 |  |  | 53 |  |  | 89.75 | 71
O=C1c2c(Br)c(Br)c(Br)c(Br)c2C(=O)N1Cc1ccccn1 | Toxic | 35 | 5010 | Active | 54 | Non-toxic | Non-toxic | 92.33 | 82.66
O=C1c2cc(Cl)c(Cl)cc2C(=O)N1Cc1ccccn1 |  |  |  |  | 11 |  |  | 155.3 | 93
O=C1c2c(Cl)c(Cl)c(Cl)c(Cl)c2C(=O)N1c1ncccn1 |  | 5 |  |  | 3 |  |  | 117 | 123
O=C1c2c(Br)c(Br)c(Br)c(Br)c2C(=O)N1CCN1CCOCC1 |  | 20 |  |  | 7 |  |  | 161.3 | 80
O=C1c2c(Cl)c(Cl)c(Cl)c(Cl)c2C(=O)N1c1ccncc1 |  | 3 |  |  | 44 |  |  | 129.5 | 110.6
O=C1c2c(Br)c(Br)c(Br)c(Br)c2C(=O)N1c1ncccn1 |  | 28 |  |  | 19 |  |  | 196 | 110.6
O=C1c2c(Cl)c(Cl)c(Cl)c(Cl)c2C(=O)N1CCN1CCOCC1 |  | 10 |  |  | 46 |  |  | 105.7 | 100.3
O=C1[C@@H]2[C@H](C(=O)N1CCN1CCOCC1)C1(Cl)C(Cl)=C(Cl)C2(Cl)C1(Cl)Cl |  |  |  |  | 7 |  |  | 152.3 | 91.33
O=C1c2c(Cl)c(Cl)c(Cl)c(Cl)c2C(=O)N1Cc1ccccn1 |  | 23 |  |  | 47 |  |  | 105 | 82.66
O=C1c2cc(Cl)c(Cl)cc2C(=O)N1c1ccccn1 |  | 3 |  |  | 17 |  |  | 126.2 | 90.5
O=C1c2c(Br)c(Br)c(Br)c(Br)c2C(=O)N1c1ccccn1 |  |  |  |  | 21 |  |  | 150.3 | 100.3
O=C1[C@@H]2[C@H](C(=O)N1c1ccccn1)C1(Cl)C(Cl)=C(Cl)C2(Cl)C1(Cl)Cl |  | 25 |  |  | 33 |  |  | 129.6 | 94.33
